One assay concerns the target T1, human plasma kallikrein (Homo sapiens, UniProt P03952).
T1 construct: purchased Kordia
Briefly: Determination of the plasma kallikrein activity (fluorogenic peptide substrate, AMC cleavage). The assay is classed as biochemical. Particulars: plasma kallikrein from Kordia 0.6 nM; substrate H-Pro-Phe-Arg-AMC 10 μM; 30 min at 22° C.; in some cases averages from multiple determinations. Put shortly:
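Kallikrein cleavage of H-Pro-Phe-Arg-AMC was followed by AMC fluorescence (ex 360, em 460) after 15 min enzyme–compound preincubation. IC50 was derived versus DMSO controls over final concentrations of 50 μM to 0.00013 μM.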

The target of another assay is T2, human factor XIa (Homo sapiens, UniProt P03951).
T2 construct: purchased Kordia
T2 sequence (P03951 388-625 limits assumed): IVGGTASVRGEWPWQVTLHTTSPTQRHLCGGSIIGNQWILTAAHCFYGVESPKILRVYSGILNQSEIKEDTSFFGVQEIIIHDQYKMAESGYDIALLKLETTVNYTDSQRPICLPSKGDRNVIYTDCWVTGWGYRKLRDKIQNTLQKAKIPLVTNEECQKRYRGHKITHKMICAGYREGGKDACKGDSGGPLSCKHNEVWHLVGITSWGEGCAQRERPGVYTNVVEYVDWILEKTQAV
T2 sequence (P03951 19-387 partner limits assumed): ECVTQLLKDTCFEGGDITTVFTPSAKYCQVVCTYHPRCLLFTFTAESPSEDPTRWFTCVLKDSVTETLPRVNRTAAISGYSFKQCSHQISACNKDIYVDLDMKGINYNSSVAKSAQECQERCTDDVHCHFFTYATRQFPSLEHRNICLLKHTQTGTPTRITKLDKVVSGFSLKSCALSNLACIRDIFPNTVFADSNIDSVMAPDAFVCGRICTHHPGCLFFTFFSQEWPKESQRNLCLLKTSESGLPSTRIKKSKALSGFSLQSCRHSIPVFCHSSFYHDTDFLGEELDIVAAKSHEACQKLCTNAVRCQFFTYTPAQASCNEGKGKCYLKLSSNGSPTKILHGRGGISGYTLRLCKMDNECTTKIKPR
Put plainly: Measurement of FXIa inhibition (fluorogenic peptide substrate, AMC cleavage). The assay is classed as biochemical. Particulars: factor XIa from Kordia 0.45 nM; substrate Boc-Glu(OBzl)-Ala-Arg-AMC 10 μM; 30 min at 22° C.; in some cases averages from multiple determinations.

Usually pIC50 stands for the negative decadic logarithm of the IC50, by convention in mol/L. Low readings indicate a large IC50, high ones a small IC50.

The structures appear in SMILES notation. pIC50: −log10 of the molar value.

T1 sequence (P03952 391-638 limits assumed): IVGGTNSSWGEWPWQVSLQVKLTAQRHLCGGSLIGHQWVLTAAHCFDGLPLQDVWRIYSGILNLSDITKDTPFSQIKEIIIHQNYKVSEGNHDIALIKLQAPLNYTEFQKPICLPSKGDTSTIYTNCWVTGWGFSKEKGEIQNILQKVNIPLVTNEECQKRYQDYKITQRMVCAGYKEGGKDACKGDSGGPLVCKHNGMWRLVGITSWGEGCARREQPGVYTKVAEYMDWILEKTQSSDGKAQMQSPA
T1 sequence (P03952 20-390 partner limits assumed): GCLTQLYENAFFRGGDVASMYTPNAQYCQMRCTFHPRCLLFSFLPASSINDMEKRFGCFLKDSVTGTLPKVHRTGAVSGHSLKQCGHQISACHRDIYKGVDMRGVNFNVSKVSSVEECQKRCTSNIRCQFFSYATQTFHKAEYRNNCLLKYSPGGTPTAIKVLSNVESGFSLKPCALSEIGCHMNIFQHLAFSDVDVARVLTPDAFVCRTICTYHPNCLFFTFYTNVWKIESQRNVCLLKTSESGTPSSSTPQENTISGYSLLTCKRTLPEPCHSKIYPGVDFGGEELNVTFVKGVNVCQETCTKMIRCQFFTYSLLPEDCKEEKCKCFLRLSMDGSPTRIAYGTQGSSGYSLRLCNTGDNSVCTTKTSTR

Take `CNC(=O)c1ccc(NC(=O)C(CC2COCCO2)n2cc(OC)c(-c3cc(Cl)ccc3OCC(F)(F)F)cc2=O)cn1` (stereo not shown) [Example 19, 5-{[2-{4-[5-Chloro-2-(2,2,2-trifluoroethoxy)phenyl]-5-methoxy-2-oxopyridin-1(2H)-yl}-3-(1,4-dioxan-2-yl)propanoyl]amino}-N-methylpyridine-2-carboxamide]: the pIC50 against human plasma kallikrein was 7.42; against human factor XIa it was 8.47.
For `COc1cn(C(C[C@H]2CCCCO2)C(=O)Nc2ccc(C(=O)O)cc2)c(=O)cc1-c1cc(Cl)ccc1OCC(F)(F)F` (stereo partly drawn) [Example 20, 4-[(2-{4-[5-Chloro-2-(2,2,2-trifluoroethoxy)phenyl]-5-methoxy-2-oxopyridin-1(2H)-yl}-3-[(2R)-tetrahydro-2H-pyran-2-yl]propanoyl)amino]benzoic acid], in that order: 6.92 and 8.60.
For `COc1cn(C(C[C@H]2CCCCO2)C(=O)Nc2ccc3nn(C)cc3c2)c(=O)cc1-c1cc(Cl)ccc1OCC(F)(F)F` (stereo partly drawn) [Example 21, 2-{4-[5-Chloro-2-(2,2,2-trifluoroethoxy)phenyl]-5-methoxy-2-oxopyridin-1(2H)-yl}-N-(2-methyl-2H-indazol-5-yl)-3-[(2R)-tetrahydro-2H-pyran-2-yl]propanamide], in that order: 6.82 and 7.80.
For the compound `CNC(=O)c1ccc(NC(=O)C(C[C@H]2CCCCO2)n2cc(OC)c(-c3cc(Cl)ccc3OCC(F)(F)F)cc2=O)cn1` (stereo partly drawn) [Example 22, 5-[(2-{4-[5-Chloro-2-(2,2,2-trifluoroethoxy)phenyl]-5-methoxy-2-oxopyridin-1(2H)-yl}-3-[(2R)-tetrahydro-2H-pyran-2-yl]propanoyl)amino]-N-methylpyridine-2-carboxamide], the negative logarithm of the IC50 (pIC50) at human plasma kallikrein is 6.77; on human factor XIa it was 7.74.
For `COc1cn(C(C[C@H]2CCCCO2)C(=O)Nc2ccc(C(N)=O)c(F)c2)c(=O)cc1-c1cc(Cl)ccc1OCC(F)(F)F` (stereo partly drawn) [Example 23, 4-[(2-{4-[5-Chloro-2-(2,2,2-trifluoroethoxy)phenyl]-5-methoxy-2-oxopyridin-1(2H)-yl}-3-[(2R)-tetrahydro-2H-pyran-2-yl]propanoyl)amino]-2-fluorobenzamide] the same measures were 6.47 and 7.47.
`COc1cn(C(CC2COCCO2)C(=O)Nc2ccc(C(=O)O)cc2)c(=O)cc1-c1cc(Cl)ccc1OCC(F)F` (stereo not shown) [Example 29, 4-{[2-{4-[5-Chloro-2-(2,2-difluoroethoxy)phenyl]-5-methoxy-2-oxopyridin-1(2H)-yl}-3-(1,4-dioxan-2-yl)propanoyl]amino}benzoic acid]: the negative-log IC50 (pIC50) against human plasma kallikrein is 7.10; at human factor XIa it was 8.80.
In the case of `COc1cn(C(CC2COCCO2)C(=O)Nc2ccc(C(N)=O)nc2)c(=O)cc1-c1cc(Cl)ccc1OCC(F)F` (stereo not shown) [Example 30, 5-{[2-{4-[5-Chloro-2-(2,2-difluoroethoxy)phenyl]-5-methoxy-2-oxopyridin-1(2H)-yl}-3-(1,4-dioxan-2-yl)propanoyl]amino}pyridine-2-carboxamide], the pIC50 against human plasma kallikrein was 7.13; at human factor XIa, 8.33.
As for `CNC(=O)c1ccc(NC(=O)C(CC2COCCO2)n2cc(OC)c(-c3cc(Cl)ccc3OCC(F)F)cc2=O)cn1` (stereo not shown) [Example 31, 5-{[2-{4-[5-Chloro-2-(2,2-difluoroethoxy)phenyl]-5-methoxy-2-oxopyridin-1(2H)-yl}-3-(1,4-dioxan-2-yl)propanoyl]amino}-N-methylpyridine-2-carboxamide], the pIC50 is 6.92 at human plasma kallikrein and 8.15 at human factor XIa.
For `COc1cn(C(CC2COCCO2)C(=O)Nc2ccc(C(N)=O)c(F)c2)c(=O)cc1-c1cc(Cl)ccc1OCC(F)F` (stereo not shown) [Example 32, 4-{[2-{4-[5-Chloro-2-(2,2-difluoroethoxy)phenyl]-5-methoxy-2-oxopyridin-1(2H)-yl}-3-(1,4-dioxan-2-yl)propanoyl]amino}-2-fluorobenzamide], in that order: 6.80 and 8.01.
For `COc1cn(C(CC2COCCO2)C(=O)Nc2ccc3nn(C)cc3c2)c(=O)cc1-c1cc(Cl)ccc1OCC(F)F` (stereo not shown) [Example 33, 2-{4-[5-Chloro-2-(2,2-difluoroethoxy)phenyl]-5-methoxy-2-oxopyridin-1(2H)-yl}-3-(1,4-dioxan-2-yl)-N-(2-methyl-2H-indazol-5-yl)propanamide], in that order: 7.18 and 8.24.
For `COc1cn(C(CC2COCCO2)C(=O)Nc2ccc(C(=O)O)cc2)c(=O)cc1-c1cc(Cl)ccc1OCCF` (stereo not shown) [Example 44, 4-{[2-{4-[5-Chloro-2-(2-fluoroethoxy)phenyl]-5-methoxy-2-oxopyridin-1(2H)-yl}-3-(1,4-dioxan-2-yl)propanoyl]amino}benzoic acid], the results for the pIC50 against human plasma kallikrein and against human factor XIa were 6.49 and 8.52, respectively.
For `COc1cn(C(CC2COCCO2)C(=O)Nc2ccc(C(N)=O)nc2)c(=O)cc1-c1cc(Cl)ccc1OCCF` (stereo not shown) [Example 45, 5-{[2-{4-[5-Chloro-2-(2-fluoroethoxy)phenyl]-5-methoxy-2-oxopyridin-1(2H)-yl}-3-(1,4-dioxan-2-yl)propanoyl]amino}pyridine-2-carboxamide] the same measures were 6.55 and 7.85.
For `CNC(=O)c1ccc(NC(=O)C(CC2COCCO2)n2cc(OC)c(-c3cc(Cl)ccc3OCCF)cc2=O)cn1` (stereo not shown) [Example 46, 5-{[2-{4-[5-Chloro-2-(2-fluoroethoxy)phenyl]-5-methoxy-2-oxopyridin-1(2H)-yl}-3-(1,4-dioxan-2-yl)propanoyl]amino}-N-methylpyridine-2-carboxamide], in that order: 6.82 and 8.05.
For `COc1cn(C(CC2COCCO2)C(=O)Nc2ccc(C(N)=O)c(F)c2)c(=O)cc1-c1cc(Cl)ccc1OCCF` (stereo not shown) [Example 47, 4-{[2-{4-[5-Chloro-2-(2-fluoroethoxy)phenyl]-5-methoxy-2-oxopyridin-1(2H)-yl}-3-(1,4-dioxan-2-yl)propanoyl]amino}-2-fluorobenzamide], in that order: 6.51 and 7.54.
As for `COc1cn(C(CC2COCCO2)C(=O)Nc2ccc3nn(C)cc3c2)c(=O)cc1-c1cc(Cl)ccc1OCCF` (stereo not shown) [Example 48, 2-{4-[5-Chloro-2-(2-fluoroethoxy)phenyl]-5-methoxy-2-oxopyridin-1(2H)-yl}-3-(1,4-dioxan-2-yl)-N-(2-methyl-2H-indazol-5-yl)propanamide], the results for the negative logarithm of the IC50 (pIC50) against human plasma kallikrein and at human factor XIa were 6.82 and 7.82, respectively.
Regarding `COc1cn(C(C[C@@H]2CCCCO2)C(=O)Nc2ccc(C(=O)O)cc2)c(=O)cc1-c1cc(Cl)ccc1OCC(F)(F)F` (stereo partly drawn) [Example 49, 4-[(2-{4-[5-Chloro-2-(2,2,2-trifluoroethoxy)phenyl]-5-methoxy-2-oxopyridin-1(2H)-yl}-3-[(2S)-tetrahydro-2H-pyran-2-yl]propanoyl)amino]benzoic acid], the pIC50 was 7.48 on human plasma kallikrein and 9.05 at human factor XIa.
For `COc1cn(C(C[C@@H]2CCCCO2)C(=O)Nc2ccc3nn(C)cc3c2)c(=O)cc1-c1cc(Cl)ccc1OCC(F)(F)F` (stereo partly drawn) [Example 51, 2-{4-[5-Chloro-2-(2,2,2-trifluoroethoxy)phenyl]-5-methoxy-2-oxopyridin-1(2H)-yl}-N-(2-methyl-2H-indazol-5-yl)-3-[(2S)-tetrahydro-2H-pyran-2-yl]propanamide], in that order: 7.19 and 8.22.
For `CNC(=O)c1ccc(NC(=O)C(C[C@@H]2CCCCO2)n2cc(OC)c(-c3cc(Cl)ccc3OCC(F)(F)F)cc2=O)cn1` (stereo partly drawn) [Example 52, 5-[(2-{4-[5-Chloro-2-(2,2,2-trifluoroethoxy)phenyl]-5-methoxy-2-oxopyridin-1(2H)-yl}-3-[(2S)-tetrahydro-2H-pyran-2-yl]propanoyl)amino]-N-methylpyridine-2-carboxamide] the same measures were 7.09 and 8.29.
For `COc1cn(C(C[C@@H]2CCCCO2)C(=O)Nc2ccc(C(N)=O)c(F)c2)c(=O)cc1-c1cc(Cl)ccc1OCC(F)(F)F` (stereo partly drawn) [Example 53, 4-[(2-{4-[5-Chloro-2-(2,2,2-trifluoroethoxy)phenyl]-5-methoxy-2-oxopyridin-1(2H)-yl}-3-[(2S)-tetrahydro-2H-pyran-2-yl]propanoyl)amino]-2-fluorobenzamide] the same measures were 6.68 and 8.03.
Regarding `COc1cn(C(C[C@@H]2CCCCO2)C(=O)Nc2ccc(C(N)=O)nc2)c(=O)cc1-c1cc(Cl)ccc1OCC(F)(F)F` (stereo partly shown) [Example 54], the pIC50 is 7.05 against human plasma kallikrein and 8.52 against human factor XIa.
Turning to `COc1cn(C(C[C@H](C)OC)C(=O)Nc2ccc(C(N)=O)nc2)c(=O)cc1-c1cc(Cl)ccc1OCC(F)(F)F` (stereo partly drawn) [Example 56, 5-[[(4S)-2-[4-[5-Chloro-2-(2,2,2-trifluoroethoxy)phenyl]-5-methoxy-2-oxo-1-pyridyl]-4-methoxypentanoyl]amino]pyridine-2-carboxamide], the pIC50 against human plasma kallikrein was 6.92; at human factor XIa it was 8.15.
For `COc1cn(C(C[C@@H]2CCCCO2)C(=O)Nc2ccc(C(=O)O)s2)c(=O)cc1-c1cc(Cl)ccc1OCC(F)(F)F` (stereo partly drawn) [Example 72, 5-({2-{4-[5-Chloro-2-(2,2,2-trifluoroethoxy)phenyl]-5-methoxy-2-oxopyridin-1(2H)-yl}-3-[(2S)-tetrahydro-2H-pyran-2-yl]propanoyl}amino)thiophene-2-carboxylic acid], in that order: 7.62 and 8.80.
For `COc1cc(NC(=O)C(C[C@@H]2CCCCO2)n2cc(OC)c(-c3cc(Cl)ccc3OCC(F)(F)F)cc2=O)ccc1C(=O)O` (stereo partly drawn) [Example 76, 4-({2-{4-[5-Chloro-2-(2,2,2-trifluoroethoxy)phenyl]-5-methoxy-2-oxopyridin-1(2H)-yl}-3-[(2S)-tetrahydro-2H-pyran-2-yl]propanoyl}amino)-2-methoxybenzoic acid] the same measures were 6.82 and 8.66.

These data come from patent publication US20180250280A1 (BAYER PHARMA AKTIENGESELLSCHAFT, priority 2015, published 2018).
